Reference: USRE48335E1, “Polymyxin derivatives as antimicrobial compounds” (priority 2014, dated 2020)
In brackets after ≈: the same amount, converted by molar mass. Read-outs that look alike come from different tables or passages of the source. Positions of bridges follow the written chain, without caps; N, C: chain ends. Non-standard residues stand in square brackets, D forms with d. Residues, ends and D or L forms follow the SMILES beside them. *: point of attachment. Benzoyl(3-CF3) = O=C(c1cccc(C(F)(F)F)c1)*; X36 = O=C(c1cc(C(F)(F)F)cc(C(F)(F)F)c1)*; Heptanoyl(6-Me) = CC(C)CCCCC(=O)*; Tle = CC(C)(C)[C@H](N)C(=O)O; X3 = O=C(c1ccc(Cl)cc1Cl)*; Heptanoyl = CCCCCCC(=O)*; Octanoyl = CCCCCCCC(=O)*; Orn = NCCC[C@H](N)C(=O)O; Dab = NCC[C@H](N)C(=O)O; X33 = Cc1cccc(C(=O)*)c1; Abu = CC[C@H](N)C(=O)O; Dap = NC[C@H](N)C(=O)O; X44 = O=C(c1ccccc1Cl)*

How the values were obtained:
Enterobacter cloacae = test system: Enterobacter cloacae
Method in brief: (§1)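 Broth microdilution MICs following CLSI standards in cation-adjusted Mueller-Hinton broth. Lipopeptides tested as TFA salts; polymyxin B sulphate served as control.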

Acinetobacter baumannii = test system: Acinetobacter baumannii
Method in brief: as §1

Pseudomonas aeruginosa = test system: Pseudomonas aeruginosa
Method in brief: as §1

Compound	Minimum inhibitory concentration, Ec FADDI-EC001 (Enterobacter cloacae)	Minimum inhibitory concentration, Ec FADDI-EC003 (Enterobacter cloacae)	Minimum inhibitory concentration, Ec FADDI-EC006 (Enterobacter cloacae)	Minimum inhibitory concentration, Ab A ATCC 17978 (Acinetobacter baumannii)	Minimum inhibitory concentration, Ab ATCC 19606 (Acinetobacter baumannii)	Minimum inhibitory concentration, Ab FADDI-AB034 (Acinetobacter baumannii)	Minimum inhibitory concentration, Pa ATCC 27853 (Pseudomonas aeruginosa)	Minimum inhibitory concentration, Pa FADDI-PA022 (Pseudomonas aeruginosa)	Minimum inhibitory concentration, Pa FADDI-PA025 (Pseudomonas aeruginosa)	further results
CCCCCCCC(=O)N[C@@H](CCN)C(=O)N[C@H](C(=O)N[C@@H](CN)C(=O)N[C@H]1CCNC(=O)[C@H]([C@@H](C)O)NC(=O)[C@H](CCN)NC(=O)[C@H](CCN)NC(=O)[C@H](C(C)(C)C)NC(=O)[C@@H](CC(C)C)NC(=O)[C@H](CCN)NC1=O)[C@@H](C)O [Compound 47] (Octanoyl-[Dab]T[Dap][Dab][Dab][dL][Tle][Dab][Dab]T; lactam 4-C)	0.5 mg/L (≈ 0.438 µM)	0.5 mg/L (≈ 0.438 µM)	0.25 mg/L (≈ 0.219 µM)	2 mg/L (≈ 1.75 µM)	8 mg/L (≈ 7.01 µM)	1 mg/L (≈ 0.876 µM)	1 mg/L (≈ 0.876 µM)	1 mg/L (≈ 0.876 µM)	8 mg/L (≈ 7.01 µM)	
CCCCCCCC(=O)N[C@@H](CCN)C(=O)N[C@H](C(=O)N[C@@H](CN)C(=O)N[C@H]1CCNC(=O)[C@H]([C@@H](C)O)NC(=O)[C@H](CCN)NC(=O)[C@H](CCN)NC(=O)[C@H]([C@@H](C)O)NC(=O)[C@@H](CC(C)C)NC(=O)[C@H](CN)NC1=O)[C@@H](C)O [Compound 52] (Octanoyl-[Dab]T[Dap][Dab][Dap][dL]T[Dab][Dab]T; lactam 4-C)	0.25 mg/L (≈ 0.224 µM)	0.25 mg/L (≈ 0.224 µM)	0.5 mg/L (≈ 0.448 µM)	0.5 mg/L (≈ 0.448 µM)	1 mg/L (≈ 0.897 µM)	0.5 mg/L (≈ 0.448 µM)	0.5 mg/L (≈ 0.448 µM)	1 mg/L (≈ 0.897 µM)	>32 mg/L	
CCCCCCCC(=O)N[C@@H](CCN)C(=O)N[C@H](C(=O)N[C@@H](CCCN)C(=O)N[C@H]1CCNC(=O)[C@H]([C@@H](C)O)NC(=O)[C@H](CCN)NC(=O)[C@H](CCN)NC(=O)[C@H]([C@@H](C)O)NC(=O)[C@@H](CC(C)C)NC(=O)[C@H](CCN)NC1=O)[C@@H](C)O [Compound 34] (Octanoyl-[Dab]T[Orn][Dab][Dab][dL]T[Dab][Dab]T; lactam 4-C)	<0.125 mg/L	<0.125 mg/L	4 mg/L (≈ 3.46 µM)	2 mg/L (≈ 1.73 µM)	2 mg/L (≈ 1.73 µM)	2 mg/L (≈ 1.73 µM)	1 mg/L (≈ 0.864 µM)	0.5 mg/L (≈ 0.432 µM)	>32 mg/L	
CCCCCCC(=O)N[C@@H](CCN)C(=O)N[C@H](C(=O)N[C@@H](CN)C(=O)N[C@H]1CCNC(=O)[C@H]([C@@H](C)O)NC(=O)[C@H](CCN)NC(=O)[C@H](CCN)NC(=O)[C@H](CC)NC(=O)[C@@H](CC(C)C)NC(=O)[C@H](CCN)NC1=O)[C@@H](C)O [Compound 64] (Heptanoyl-[Dab]T[Dap][Dab][Dab][dL][Abu][Dab][Dab]T; lactam 4-C)	0.5 mg/L (≈ 0.455 µM)	<0.125 mg/L	0.25 mg/L (≈ 0.227 µM)	0.5 mg/L (≈ 0.455 µM)	0.5 mg/L (≈ 0.455 µM)	1 mg/L (≈ 0.91 µM)	1 mg/L (≈ 0.91 µM)	2 mg/L (≈ 1.82 µM)	8 mg/L (≈ 7.28 µM)	
CC[C@@H]1NC(=O)[C@@H](CC(C)C)NC(=O)[C@H](CCN)NC(=O)[C@@H](NC(=O)[C@H](CN)NC(=O)[C@@H](NC(=O)[C@H](CCCN)NC(=O)c2cccc(C(F)(F)F)c2)[C@@H](C)O)CCNC(=O)[C@H]([C@@H](C)O)NC(=O)[C@H](CCN)NC(=O)[C@H](CCN)NC1=O [Compound 141] ({Benzoyl(3-CF3)}-[Orn]T[Dap][Dab][Dab][dL][Abu][Dab][Dab]T; lactam 4-C)										Minimum inhibitory concentration (MIC), Ec FADDI-EC001 (Enterobacter cloacae): 2 mg/L (≈ 1.7 µM); Minimum inhibitory concentration (MIC), Ec FADDI-EC003 (Enterobacter cloacae): 1 mg/L (≈ 0.852 µM); Minimum inhibitory concentration (MIC), Ec FADDI-EC006 (Enterobacter cloacae): 4 mg/L (≈ 3.41 µM); Minimum inhibitory concentration (MIC), Ab ATCC 17978 (Acinetobacter baumannii): 4 mg/L (≈ 3.41 µM); Minimum inhibitory concentration (MIC), Ab ATCC 19606 (Acinetobacter baumannii): 16 mg/L (≈ 13.6 µM); Minimum inhibitory concentration (MIC), Ab FADDI-AB034 (Acinetobacter baumannii): 4 mg/L (≈ 3.41 µM); Minimum inhibitory concentration (MIC), Pa ATCC 27853 (Pseudomonas aeruginosa): 1 mg/L (≈ 0.852 µM); Minimum inhibitory concentration (MIC), Pa FADDI-PA022 (Pseudomonas aeruginosa): 1 mg/L (≈ 0.852 µM); Minimum inhibitory concentration (MIC), Pa FADDI-PA025 (Pseudomonas aeruginosa): 2 mg/L (≈ 1.7 µM)
CC[C@@H]1NC(=O)[C@@H](CC(C)C)NC(=O)[C@H](CCN)NC(=O)[C@@H](NC(=O)[C@H](CCCN)NC(=O)[C@@H](NC(=O)[C@H](CCN)NC(=O)c2ccc(Cl)cc2Cl)[C@@H](C)O)CCNC(=O)[C@H]([C@@H](C)O)NC(=O)[C@H](CCN)NC(=O)[C@H](CCN)NC1=O [Compound 147] (X3-[Dab]T[Orn][Dab][Dab][dL][Abu][Dab][Dab]T; lactam 4-C)										Minimum inhibitory concentration (MIC), Ec FADDI-EC001 (Enterobacter cloacae; Enterobacter cloacae FADDI-EC001, broth microdilution in CAMHB, TFA salt): <0.125 mg/L; Minimum inhibitory concentration (MIC), Ec FADDI-EC003 (Enterobacter cloacae; Enterobacter cloacae FADDI-EC003, broth microdilution in CAMHB, TFA salt): 1 mg/L; Minimum inhibitory concentration (MIC), Ec FADDI-EC006 (Enterobacter cloacae; Enterobacter cloacae FADDI-EC006, broth microdilution in CAMHB, TFA salt): 1 mg/L; Minimum inhibitory concentration (MIC), Ab ATCC 17978 (Acinetobacter baumannii; Acinetobacter baumannii ATCC 17978, broth microdilution in CAMHB, TFA salt): 4 mg/L; Minimum inhibitory concentration (MIC), Ab ATCC 19606 (Acinetobacter baumannii; Acinetobacter baumannii ATCC 19606, broth microdilution in CAMHB, TFA salt): 4 mg/L; Minimum inhibitory concentration (MIC), Ab FADDI-AB034 (Acinetobacter baumannii; Acinetobacter baumannii FADDI-AB034, broth microdilution in CAMHB, TFA salt): 2 mg/L; Minimum inhibitory concentration (MIC), Pa ATCC 27853 (Pseudomonas aeruginosa; Pseudomonas aeruginosa ATCC 27853, broth microdilution in CAMHB, TFA salt): 1 mg/L; Minimum inhibitory concentration (MIC), Pa FADDI-PA022 (Pseudomonas aeruginosa; Pseudomonas aeruginosa FADDI-PA022, broth microdilution in CAMHB, TFA salt): 1 mg/L; Minimum inhibitory concentration (MIC), Pa FADDI-PA025 (Pseudomonas aeruginosa; Pseudomonas aeruginosa FADDI-PA025, broth microdilution in CAMHB, TFA salt): >32 mg/L
CC[C@@H]1NC(=O)[C@@H](CC(C)C)NC(=O)[C@H](CCN)NC(=O)[C@@H](NC(=O)[C@H](CN)NC(=O)[C@@H](NC(=O)[C@H](CCN)NC(=O)c2ccccc2Cl)[C@@H](C)O)CCNC(=O)[C@H]([C@@H](C)O)NC(=O)[C@H](CCN)NC(=O)[C@H](CCN)NC1=O [Compound 72] (X44-[Dab]T[Dap][Dab][Dab][dL][Abu][Dab][Dab]T; lactam 4-C)	0.5 mg/L (≈ 0.444 µM)	0.25 mg/L (≈ 0.222 µM)	0.5 mg/L (≈ 0.444 µM)	4 mg/L (≈ 3.55 µM)	8 mg/L (≈ 7.11 µM)	4 mg/L (≈ 3.55 µM)	0.5 mg/L (≈ 0.444 µM)	0.5 mg/L (≈ 0.444 µM)	4 mg/L (≈ 3.55 µM)	
CC[C@@H]1NC(=O)[C@@H](CC(C)C)NC(=O)[C@H](CCN)NC(=O)[C@@H](NC(=O)[C@H](CN)NC(=O)[C@@H](NC(=O)[C@H](CCN)NC(=O)c2cccc(C)c2)[C@@H](C)O)CCNC(=O)[C@H]([C@@H](C)O)NC(=O)[C@H](CCN)NC(=O)[C@H](CCN)NC1=O [Compound 87] (X33-[Dab]T[Dap][Dab][Dab][dL][Abu][Dab][Dab]T; lactam 4-C)	2 mg/L (≈ 1.81 µM)	1 mg/L (≈ 0.905 µM)	2 mg/L (≈ 1.81 µM)	1 mg/L (≈ 0.905 µM)	2 mg/L (≈ 1.81 µM)	2 mg/L (≈ 1.81 µM)	0.5 mg/L (≈ 0.452 µM)	1 mg/L (≈ 0.905 µM)	2 mg/L (≈ 1.81 µM)	
CC[C@@H]1NC(=O)[C@@H](CC(C)C)NC(=O)[C@H](CCN)NC(=O)[C@@H](NC(=O)[C@H](CN)NC(=O)[C@@H](NC(=O)[C@H](CCN)NC(=O)c2cc(C(F)(F)F)cc(C(F)(F)F)c2)[C@@H](C)O)CCNC(=O)[C@H]([C@@H](C)O)NC(=O)[C@H](CCN)NC(=O)[C@H](CCN)NC1=O [Compound 97] (X36-[Dab]T[Dap][Dab][Dab][dL][Abu][Dab][Dab]T; lactam 4-C)	0.5 mg/L (≈ 0.407 µM)	0.25 mg/L (≈ 0.204 µM)	0.5 mg/L (≈ 0.407 µM)	<0.125 mg/L	0.5 mg/L (≈ 0.407 µM)	0.25 mg/L (≈ 0.204 µM)	0.5 mg/L (≈ 0.407 µM)	0.5 mg/L (≈ 0.407 µM)	1 mg/L (≈ 0.815 µM)	
CCCCCCCC(=O)N[C@@H](CN)C(=O)N[C@H](C(=O)N[C@@H](CCN)C(=O)N[C@H]1CCNC(=O)[C@H]([C@@H](C)O)NC(=O)[C@H](CCN)NC(=O)[C@H](CCN)NC(=O)[C@H]([C@@H](C)O)NC(=O)[C@@H](CC(C)C)NC(=O)[C@H](CCN)NC1=O)[C@@H](C)O [Compound 31] (Octanoyl-[Dap]T[Dab][Dab][Dab][dL]T[Dab][Dab]T; lactam 4-C)	<0.125 mg/L	0.25 mg/L (≈ 0.221 µM)	0.5 mg/L (≈ 0.443 µM)	4 mg/L (≈ 3.54 µM)	4 mg/L (≈ 3.54 µM)	2 mg/L (≈ 1.77 µM)	0.5 mg/L (≈ 0.443 µM)	0.5 mg/L (≈ 0.443 µM)	16 mg/L (≈ 14.2 µM)	
CC(C)CCCCC(=O)N[C@@H](CCN)C(=O)N[C@H](C(=O)N[C@@H](CN)C(=O)N[C@H]1CCNC(=O)[C@H]([C@@H](C)O)NC(=O)[C@H](CCN)NC(=O)[C@H](CCN)NC(=O)[C@H](C)NC(=O)[C@@H](CC(C)C)NC(=O)[C@H](CCN)NC1=O)[C@@H](C)O [Compound 65] ({Heptanoyl(6-Me)}-[Dab]T[Dap][Dab][Dab][dL]A[Dab][Dab]T; lactam 4-C)	0.5 mg/L (≈ 0.455 µM)	<0.125 mg/L	0.25 mg/L (≈ 0.227 µM)	0.25 mg/L (≈ 0.227 µM)	0.5 mg/L (≈ 0.455 µM)	1 mg/L (≈ 0.91 µM)	1 mg/L (≈ 0.91 µM)	2 mg/L (≈ 1.82 µM)	16 mg/L (≈ 14.6 µM)	
